The values below come from patent US20240174684A1, “INHIBITORS OF cGAS ACTIVITY AS THERAPEUTIC AGENTS” (BELLBROOK LABS, LLC, priority 2021, published 2024).

One data set has as its target cGAS (Homo sapiens, UniProt Q8N884). Briefly: Transcreener cGAS enzymatic assay (FP). The class given is biochemical. The procedure, abridged:
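Human cGAS (30 nm) inhibition, 60 min reactions, FP read-out, standard conditions 100 μM ATP and GTP plus 62.5 nM bp ISD. Also run at 1 mM ATP and GTP (physiological), with 200 μM MnCl2, and with mouse cGAS under standard conditions; IC50 reported.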

A short description of data set [1]: Pharmacokinetics in C57BL/6 female mice, IV and PO. The class given is in vivo. Conditions: plasma; for AUC: read-out: AUC0-tidc. How it is done:
The pharmacokinetic characteristics of Compound 5 (BBL-100455) were estimated in C57BL/6 female mice following intravenous (IV) bolus and oral (PO) administration.
In short, the compound of the disclosure at 0.6 mg/mL in PBS containing 5% MSO and 25% PEG-400 was administered by IV injection (3 mg/kg). For PO (30 mg/kg), the compound of the disclosure at 3 mg/mL in PBS containing 10% MSO and 50% PEG-400 was orally administered. At the given time points (0.083 h, 0.167 h, 0.25 h, 0.50 h 1 h, 2 h, 4 h, 7 h, 16 h and 24 h), blood samples were collected using heparinized calibrated pipettes. Samples were centrifuged at 15000 rpm for 10 min. Subsequently, blood plasma was collected from the upper layer. The plasma was frozen at −80° C. for later analysis. At 2 h. 7 h and 24 h, brain samples were collected and immediately stored at […] for later analysis.
The analytical curve was constructed using ten non-zero standards with Compound 5 (BBL-100455) concentration ranging from 1 to 2500 ng/ml in the blank plasma and brain tissue. A blank sample (matrix sample processed without internal standard) was used to exclude contamination. The linear regression analysis of BBL- 100455 was performed by plotting the peak area ratio (y) against the BBL-100455 concentrations (x) in ng/ml.
The individual and average compound 5 concentration-time data for IV and PO dosed groups are presented in FIG. 4 for plasma concentration. All PK parameters were estimated using non-compartmental analyses with Phoenix/WINONLIN.

Data set [2] in a line: Metabolic stability in human hepatocytes. The class given is in vitro ADME. Conditions: read-out: Human MS Stability t1/2. How it is done: ADME studies: Compound A and the compounds of the disclosure were tested for aqueous solubility (KSOL), metabolic stability (human and mouse […]) and permeability (Caco-2 and/or MDR1-MDCK cells) to provide an initial indication of oral bioavailability.
The favorable physicochemical properties are reflected in promising results in in vitro ADME tests. […] Metabolic stability, which was routinely measured with mouse and human hepatocytes, is outstanding, with t, greater than 2 hours for all of the compounds of the disclosure in which it has been measured. Cell permeability was measured using MDCK cells expressing human MDR1 (P-glycoprotein) to assess passive permeability as well as active transport out of the cell. […] Numerous compounds in Table 1 meet these permeability criteria, which is consistent with their design for TPSA <140 Å^2 and increased lipophilicity.
The MDCK-MDR1 permeability A ->B is shown in Table 2 below, where A represents 5-10 cm/s×10^−6; B represents 1-5 cm/s×10^−6; and C represents <1 cm/ss×10^−6. The metabolic stability half time, in both mouse and human hepatocytes, is also shown in Table 2 below, where A′ represents 100-200 minutes; B′ represents 200-300 minutes; and C′ represents >300 minutes.

The mark [3] stands for this setting: mouse, IV 3 mg/kg, C57BL/6 female mice.
Where [4] appears, read: mouse, PO 30 mg/kg, C57BL/6 female mice.

Like-named read-outs stand apart in the source and are kept apart here.

Chain of cGAS (Q8N884 whole entry): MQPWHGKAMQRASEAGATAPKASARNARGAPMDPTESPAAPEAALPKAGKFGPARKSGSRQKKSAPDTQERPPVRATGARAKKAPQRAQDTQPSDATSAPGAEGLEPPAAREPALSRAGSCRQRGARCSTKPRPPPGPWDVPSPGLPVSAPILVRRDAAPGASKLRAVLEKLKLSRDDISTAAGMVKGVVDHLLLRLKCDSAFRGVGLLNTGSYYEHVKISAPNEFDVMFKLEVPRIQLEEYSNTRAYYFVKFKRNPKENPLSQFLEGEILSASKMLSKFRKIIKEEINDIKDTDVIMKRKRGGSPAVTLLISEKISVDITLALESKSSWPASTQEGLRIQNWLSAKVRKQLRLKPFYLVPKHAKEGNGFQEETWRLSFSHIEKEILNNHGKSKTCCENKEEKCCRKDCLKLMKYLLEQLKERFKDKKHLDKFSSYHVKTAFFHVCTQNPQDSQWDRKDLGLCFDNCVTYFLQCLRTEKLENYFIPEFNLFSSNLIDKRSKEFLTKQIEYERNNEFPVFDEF

As to `Cc1nc(N2C[C@@H](CC(=O)Nc3ccc(-c4ccccc4)cc3)C[C@H]2C(=O)O)c2oc3ccccc3c2n1` [Compound 5, (2S,4R)-4-(2-([1,1′-biphenyl]-4-ylamino)-2-oxoethyl)-1-(2-methylbenzofuro[3,2-d]pyrimidin-4-yl)pyrrolidine-2-carboxylic acid], the IC50 (commonly the concentration needed to halve the response being measured) at cGAS (high ATP and GTP (1 mM) to mimic physiological conditions, read-out: IC50 FP Physiological) was 500 to 1000 nM. Moreover, at cGAS (standard conditions: 100 μM ATP and GTP, 62.5 nM bp ISD, 60 minute reactions, read-out: IC50 FP Standard), the IC50 fell in the range of 50 to 100 nM. Moreover, the Vss in data set [1] (IV 3 mg/kg, C57BL/6 female mice) was 0.853 L/kg. The bioavailability (commonly the share of a dose that reaches the circulation, judged against a reference dose that is usually intravenous) in data set [1] (female, C57BL/6, mouse, PO 30 mg/kg vs IV 3 mg/kg, bioavailability) was 29.3%. In data set [1] (setting [3]), the AUC(0-inf) (usually the area under the concentration-time curve extrapolated to infinity) was determined as 4860 ng·h/mL, the clearance was 10.3 mL/min/kg, the half-life is 2.3 h and the AUC came to 4630 ng·h/mL. Further, in data set [1] (setting [4]), the AUC(0-inf) amounted to 13600 ng·h/mL; the CL/F (in general, the apparent clearance, not corrected for the fraction that reaches the circulation) is 36.8 mL/min/kg; the concentration peaked (Cmax) at 2870 ng/mL; the Tmax – broadly, the time from dosing to the highest level – came out at 0.5 h. In addition, in data set [1] (setting [4]), the half-life was 2.25 h and the AUC worked out at 13600 ng·h/mL. Further, the half-life in data set [2] was 1.67 to 3.33 h.
